Measurements as given in US20260125378A2, “Heterocyclic Compounds” (BeOne Medicines I GmbH, priority 2023, published 2026).

What was measured:
[1] = target: T1, Full length DGKα (D21-10BG, SignalChem) (Homo sapiens, UniProt P23743); experiment: Biochemical DGK IC50 assay (ADP-Glo, lipid micelle substrate), DGKα; conditions: 1 hour preincubation, 1 hour reaction, room temperature
T1 construct: Full length DGKα (D21-10BG, SignalChem); purchased SignalChem D21-10BG
How it was run: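 Full-length human DGKα with DAG/PS lipid micelle substrate (in octyl glucoside buffer), reacted 1 h at room temperature in 50 mM HEPES, 10 mM MgCl2, 0.01 mM CaCl2, 0.1 mM Na3VO4, 0.01% BSA, 0.005% Tween-20. ADP formed read by ADP-Glo luminescence; IC50 from inhibition across increasing compound concentrations.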

[2] = target: T2, Full length DGKζ (in-house protein M1-V929) (Homo sapiens, UniProt Q13574); experiment: Biochemical DGK IC50 assay (ADP-Glo, lipid micelle substrate), DGKζ; conditions: 1 hour preincubation, 1 hour reaction, room temperature
T2 construct: His (N); TEV site (N); made in house; host or cells: Sf9 insect cells (Bac-to-Bac baculovirus)
How it was run: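 Full-length human DGKζ (M1-V929, His-TEV tagged, Sf9 baculovirus-expressed) with DAG/PS lipid micelle substrate in octyl glucoside, at room temperature in 50 mM HEPES, 10 mM MgCl2, 0.01 mM CaCl2 buffer.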

T1 sequence (P23743 whole entry): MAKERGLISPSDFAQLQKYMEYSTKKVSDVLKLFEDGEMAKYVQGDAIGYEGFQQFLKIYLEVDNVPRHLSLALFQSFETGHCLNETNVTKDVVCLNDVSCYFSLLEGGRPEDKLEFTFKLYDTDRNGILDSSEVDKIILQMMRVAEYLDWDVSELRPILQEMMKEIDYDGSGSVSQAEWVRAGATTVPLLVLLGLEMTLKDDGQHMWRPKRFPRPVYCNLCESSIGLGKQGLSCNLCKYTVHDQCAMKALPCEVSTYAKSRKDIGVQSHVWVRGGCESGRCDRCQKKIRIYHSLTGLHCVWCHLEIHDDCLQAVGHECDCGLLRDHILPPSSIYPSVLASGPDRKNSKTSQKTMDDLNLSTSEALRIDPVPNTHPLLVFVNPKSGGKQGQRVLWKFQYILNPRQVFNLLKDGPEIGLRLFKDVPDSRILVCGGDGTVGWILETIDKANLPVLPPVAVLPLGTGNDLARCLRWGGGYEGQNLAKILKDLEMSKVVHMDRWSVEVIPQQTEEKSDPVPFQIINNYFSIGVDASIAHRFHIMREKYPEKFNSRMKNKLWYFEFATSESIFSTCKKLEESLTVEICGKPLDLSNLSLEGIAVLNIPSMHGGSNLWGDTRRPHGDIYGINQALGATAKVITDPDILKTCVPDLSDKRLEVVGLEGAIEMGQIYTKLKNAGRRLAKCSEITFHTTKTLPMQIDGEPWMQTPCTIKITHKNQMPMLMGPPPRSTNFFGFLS
T2 sequence (Q13574 1-929 isoform Q13574-4): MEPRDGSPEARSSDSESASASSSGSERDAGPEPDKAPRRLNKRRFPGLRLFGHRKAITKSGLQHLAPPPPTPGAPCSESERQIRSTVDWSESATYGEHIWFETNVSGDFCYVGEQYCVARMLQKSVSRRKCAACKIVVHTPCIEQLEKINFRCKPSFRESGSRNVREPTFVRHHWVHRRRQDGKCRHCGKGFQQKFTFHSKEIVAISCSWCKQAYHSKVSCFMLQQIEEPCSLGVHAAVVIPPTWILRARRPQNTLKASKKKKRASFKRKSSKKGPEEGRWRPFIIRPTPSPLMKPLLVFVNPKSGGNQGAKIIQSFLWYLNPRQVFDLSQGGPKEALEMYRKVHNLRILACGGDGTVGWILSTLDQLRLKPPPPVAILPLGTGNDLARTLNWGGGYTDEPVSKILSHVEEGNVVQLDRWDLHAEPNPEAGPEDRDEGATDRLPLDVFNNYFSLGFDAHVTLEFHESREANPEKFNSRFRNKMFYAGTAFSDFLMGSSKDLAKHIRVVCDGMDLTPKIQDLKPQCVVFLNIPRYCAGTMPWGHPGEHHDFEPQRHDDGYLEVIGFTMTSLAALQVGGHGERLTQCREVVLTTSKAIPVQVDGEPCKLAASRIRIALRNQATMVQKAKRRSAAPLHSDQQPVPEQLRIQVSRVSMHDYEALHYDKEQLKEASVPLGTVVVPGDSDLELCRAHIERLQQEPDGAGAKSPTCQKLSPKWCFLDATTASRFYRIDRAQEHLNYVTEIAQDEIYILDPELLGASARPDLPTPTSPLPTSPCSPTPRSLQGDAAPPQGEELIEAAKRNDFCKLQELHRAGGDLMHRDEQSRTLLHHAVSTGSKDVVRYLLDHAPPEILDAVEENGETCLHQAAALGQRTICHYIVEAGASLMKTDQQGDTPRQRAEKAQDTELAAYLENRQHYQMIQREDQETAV

## CCn1c(CC#N)nc2c(N3C[C@@H](C)N(C(C)c4ccc5sc(C)nc5c4)C[C@@H]3C)nc(=O)n(C)c21 (stereo partly drawn) [Compound A55, 2-(6-((2S,5R)-2,5-dimethyl-4-(1-(2-methylbenzo[d]thiazol-5-yl)ethyl)piperazin-1-yl)-9-ethyl-3-methyl-2-oxo-3,9-dihydro-2H-purin-8-yl)acetonitrile]
[1]
  IC50: 68700 nM
[2]
  IC50: 31 nM

## CCn1c(CC#N)nc2c(N3C[C@@H](C)N(C(C)c4ccc5c(c4)C(=O)N(C(C)C)C5=O)C[C@@H]3C)nc(=O)n(C)c21 (stereo partly drawn) [Compound A178, 2-(9-ethyl-6-((2S,5R)-4-(1-(2-isopropyl-1,3-dioxoisoindolin-5-yl)ethyl)-2,5-dimethylpiperazin-1-yl)-3-methyl-2-oxo-3,9-dihydro-2H-purin-8-yl)acetonitrile]
[1]
  IC50: 92400 nM
[2]
  IC50: 15 nM

## CC(c1ccc(F)cc1OC(C)(F)F)N1C[C@H](C)N(c2nc(=O)n(C)c3c2nc(CC#N)n3C)C[C@H]1C (stereo partly drawn) [Compound A31, 2-(6-((2S,5R)-4-(1-(2-(1,1-difluoroethoxy)-4-fluorophenyl)ethyl)-2,5-dimethylpiperazin-1-yl)-3,9-dimethyl-2-oxo-3,9-dihydro-2H-purin-8-yl)acetonitrile]
[1]
  IC50: 110000 nM
[2]
  IC50: 4 nM

## CCn1c(CC#N)nc2c(N3C[C@@H](C)N(C(C)c4cc(C(F)(F)F)ccn4)C[C@@H]3C)nc(=O)n(C)c21 (stereo partly drawn) [Compound A120, 2-(6-((2S,5R)-2,5-dimethyl-4-(1-(4-(trifluoromethyl)pyridin-2-yl)ethyl)piperazin-1-yl)-9-ethyl-3-methyl-2-oxo-3,9-dihydro-2H-purin-8-yl)acetonitrile]
[1]
  IC50: > 150000 nM
[2]
  IC50: 1280 nM

## CCn1c(CC#N)nc2c(N3C[C@@H](C)N(C(C)c4cc(F)cc(C(F)F)c4)C[C@@H]3C)nc(=O)n(C)c21 (stereo partly drawn) [Compound A38, 2-(6-((2S,5R)-4-(1-(3-(difluoromethyl)-5-fluorophenyl)ethyl)-2,5-dimethylpiperazin-1-yl)-9-ethyl-3-methyl-2-oxo-3,9-dihydro-2H-purin-8-yl)acetonitrile]
[1]
  IC50: 143000 nM
[2]
  IC50: 165 nM

## CCn1c(CC#N)nc2c(N3C[C@@H](C)N(C(C)c4ccc5c(c4)OC(F)(F)CO5)C[C@@H]3C)nc(=O)n(C)c21 (single isomer, unassigned) [Compound A80b]
[1]
  IC50: > 150000 nM
[2]
  IC50: 664 nM

## CC(c1ccc2c(c1)OC(F)(F)C(F)(F)O2)N1C[C@H](C)N(c2nc(=O)n(C)c3c2nc(CC#N)n3C)C[C@H]1C (single isomer, unassigned) [Compound A79a]
[1]
  IC50: 7280 nM
[2]
  IC50: 38 nM

## CC(c1cc(F)c2c(c1)OC(C)(C)CO2)N1C[C@H](C)N(c2nc(=O)n(C)c3c2nc(CC#N)n3C)C[C@H]1C (single isomer, unassigned) [Compound A68a]
[1]
  IC50: 20300 nM
[2]
  IC50: 2 nM

## CCc1nc2cc(C(C)N3C[C@H](C)N(c4nc(=O)n(C)c5c4nc(CC#N)n5CC)C[C@H]3C)ccc2s1 (single isomer, unassigned) [Compound A95b]
[1]
  IC50: 108000 nM
[2]
  IC50: 555 nM

## Cc1cccc(C(C)N2C[C@H](C)N(c3c(F)c(=O)n(C)c4c3nc(CC#N)n4C)C[C@H]2C)c1C(F)(F)F (single isomer, unassigned) [Compound A17a]
[1]
  IC50: 1460 nM
[2]
  IC50: 133 nM

## CC(c1ccc(F)cc1C(F)(F)F)N1C[C@H](C)N(c2cc(=O)n(C)c3c2nc(CC#N)n3C)C[C@H]1C (stereo partly drawn) [Compound A2, 2-(7-((2S,5R)-4-(1-(4-fluoro-2-(trifluoromethyl)phenyl)ethyl)-2,5-dimethylpiperazin-1-yl)-3,4-dimethyl-5-oxo-4,5-dihydro-3H-imidazo[4,5-b]pyridin-2-yl)acetonitrile]
[1]
  IC50: > 150000 nM
[2]
  IC50: 92 nM

## CC(OC(F)F)c1cc(F)ccc1C(C)N1C[C@H](C)N(c2nc(=O)n(C)c3c2nc(CC#N)n3C)C[C@H]1C (single isomer, unassigned) [Compound A29a]
[1]
  IC50: > 150000 nM
[2]
  IC50: 437 nM
